Data: US12371428B2 (Exelixis, Inc., priority 2019, dated 2025)
Where two headings read alike, the source gives them in different places.

How the values were obtained:
Format in all cases: cell-based
[1] = target: Met (phospho-Met, HGF-stimulated PC-3 prostate cancer cells) (Homo sapiens (Human), UniProt P08581); assay: Met autophosphorylation ELISA in PC-3 cells (Example F); conditions: cellular activity, read-out: c-Met IC50
Method: PC-3 prostate cancer cells (ATCC #CRL-1435) were seeded at 4×10^4 cells/well onto 24-well plates (Greiner #662165), in DMEM (Thermo Fisher #11995-040) containing 10% FBS (Thermo Fisher #26140-079), 1% MEM NEAA (Thermo Fisher #11140-050), 1% GlutaMax (Thermo Fisher #35050-061), and 1% Penicillin Streptomycin (Thermo Fisher #15140-122). PC-3 cells were incubated at 37° C., 5% CO2 for 24 h and then starved for 3 h in serum-free medium. Test compounds were serially diluted to produce an 8-point dose curve in fresh serum-free medium to a final concentration of 0.3% DMSO (vehicle) and added to the cells and incubated for 1 h. Cells were then stimulated with 100 ng/mL recombinant human HGF (R&D Systems #294-HG-250) for 10 min, washed with cold PBS, and immediately lysed with […] of cold 1× lysis buffer [20 mM Tris, 137 mM sodium chloride, 2 mM EDTA, 10% glycerol, 1% NP-40 alternative, 1 mM activated sodium orthovanadate, 1 mM PefaBloc SC (Sigma-Aldrich #11429868001), protease/phosphatase inhibitor tablet (Thermo Fisher #A32959)]. Lysates were clarified by centrifugation and 100 μL/well added into the PathScan phospho-Met (panTyr) Sandwich ELISA (Cell Signaling Technology #7333). Assay was performed according to manufacturer's instructions. Positive control wells (100% activity) contained HGF-stimulated, DMSO-treated cell lysates. Negative control wells (0% activity) contained HGF-stimulated, reference inhibitor-treated cell lysates. IC50 values were calculated by nonlinear regression analysis using a 4-parameter logistic curve fit in ActivityBase XE (IDBS).

[2] = target: KDR (phospho-KDR, VEGF165-stimulated HUVEC cells) (Homo sapiens (Human), UniProt P35968); assay: KDR autophosphorylation ELISA in HUVEC cells (Example G); conditions: cellular activity
Sequence of KDR (phospho-KDR, VEGF165-stimulated HUVEC cells) (P35968 20-1356): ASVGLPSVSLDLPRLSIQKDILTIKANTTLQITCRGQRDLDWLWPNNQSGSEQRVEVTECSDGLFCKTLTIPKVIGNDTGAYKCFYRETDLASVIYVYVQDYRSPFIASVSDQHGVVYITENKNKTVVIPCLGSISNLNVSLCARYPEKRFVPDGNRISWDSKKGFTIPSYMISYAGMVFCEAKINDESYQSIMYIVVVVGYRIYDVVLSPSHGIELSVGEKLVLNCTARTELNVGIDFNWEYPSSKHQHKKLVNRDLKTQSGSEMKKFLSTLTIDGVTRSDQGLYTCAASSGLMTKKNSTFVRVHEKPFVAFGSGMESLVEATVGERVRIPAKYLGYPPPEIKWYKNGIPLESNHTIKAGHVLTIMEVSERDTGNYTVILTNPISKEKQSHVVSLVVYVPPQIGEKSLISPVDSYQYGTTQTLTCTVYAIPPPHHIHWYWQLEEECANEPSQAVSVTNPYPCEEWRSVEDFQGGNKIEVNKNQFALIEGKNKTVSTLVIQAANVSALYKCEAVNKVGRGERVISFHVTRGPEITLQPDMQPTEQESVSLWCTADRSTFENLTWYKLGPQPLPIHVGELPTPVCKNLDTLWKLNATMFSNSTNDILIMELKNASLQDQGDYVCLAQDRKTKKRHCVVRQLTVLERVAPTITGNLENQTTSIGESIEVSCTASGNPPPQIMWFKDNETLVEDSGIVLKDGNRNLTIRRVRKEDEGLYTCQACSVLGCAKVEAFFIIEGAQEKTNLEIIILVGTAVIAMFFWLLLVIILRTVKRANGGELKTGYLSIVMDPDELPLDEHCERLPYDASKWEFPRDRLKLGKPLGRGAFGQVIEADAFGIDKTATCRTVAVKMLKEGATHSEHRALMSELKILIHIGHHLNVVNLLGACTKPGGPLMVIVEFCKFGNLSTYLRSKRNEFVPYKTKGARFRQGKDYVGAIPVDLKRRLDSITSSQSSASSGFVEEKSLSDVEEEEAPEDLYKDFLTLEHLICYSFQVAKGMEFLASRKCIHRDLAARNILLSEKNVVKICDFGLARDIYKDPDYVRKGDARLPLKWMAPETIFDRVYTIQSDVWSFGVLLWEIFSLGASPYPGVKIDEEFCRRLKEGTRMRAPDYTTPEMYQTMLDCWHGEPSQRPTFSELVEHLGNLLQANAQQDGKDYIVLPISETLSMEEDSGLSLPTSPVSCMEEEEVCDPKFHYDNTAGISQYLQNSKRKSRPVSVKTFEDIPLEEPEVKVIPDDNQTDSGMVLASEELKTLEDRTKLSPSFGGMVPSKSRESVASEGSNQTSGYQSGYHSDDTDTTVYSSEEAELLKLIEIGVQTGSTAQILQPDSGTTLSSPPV
Method: Human umbilical vein endothelial cells or HUVEC (Lonza #C2519A) were seeded at 2×10^4 cells/well onto 96-well plates (Corning #3904), in EGM-2 growth medium (Lonza #CC-3162) containing 1% Penicillin Streptomycin (Thermo Fisher #15140-122). HUVEC cells were incubated at 37° C., 5% CO2 for 24 h and then starved for 24 h in serum-free EBM-2 basal medium (Lonza #CC-3156) containing 1% Penicillin Streptomycin. Test compounds were serially diluted to produce an 8-point dose curve in fresh serum-free medium to a final concentration of 0.3% DMSO (vehicle) and added to the cells and incubated for 1 h. Cells were then stimulated with 100 ng/mL recombinant human VEGF165 (R&D Systems #293-VE-500) for 5 min, washed with cold PBS, and immediately lysed with […] of cold 1× lysis buffer [20 mM Tris, 137 mM sodium chloride, 2 mM EDTA, 10% glycerol, 1% NP-40 alternative, 1 mM activated sodium orthovanadate, 1 mM PefaBloc SC (Sigma-Aldrich #11429868001), protease/phosphatase inhibitor tablet (Thermo Fisher #A32959)]. Lysates were collected and 100 μL/well added into the human phospho-KDR DuoSet IC ELISA (R&D Systems #DYC1766-2). Assay was performed according to manufacturer's instructions and sample phospho-KDR concentrations were extrapolated using human phospho-KDR control (R&D Systems #841421) as a standard. Positive control wells (100% activity) contained VEGF165-stimulated, DMSO-treated cell lysates. Negative control wells (0% activity) contained non-stimulated cell lysates. IC50 values were calculated by nonlinear regression analysis using a 4-parameter logistic curve fit in ActivityBase XE (IDBS).

[3] = target: Mer (phospho-Mer, MERTK-transfected 293A cells) (Homo sapiens (Human), UniProt Q12866); assay: Mer autophosphorylation ELISA in transient transfected 293A cells (Example H); conditions: cellular activity
Sequence of Mer (phospho-Mer, MERTK-transfected 293A cells) (Q12866 21-999): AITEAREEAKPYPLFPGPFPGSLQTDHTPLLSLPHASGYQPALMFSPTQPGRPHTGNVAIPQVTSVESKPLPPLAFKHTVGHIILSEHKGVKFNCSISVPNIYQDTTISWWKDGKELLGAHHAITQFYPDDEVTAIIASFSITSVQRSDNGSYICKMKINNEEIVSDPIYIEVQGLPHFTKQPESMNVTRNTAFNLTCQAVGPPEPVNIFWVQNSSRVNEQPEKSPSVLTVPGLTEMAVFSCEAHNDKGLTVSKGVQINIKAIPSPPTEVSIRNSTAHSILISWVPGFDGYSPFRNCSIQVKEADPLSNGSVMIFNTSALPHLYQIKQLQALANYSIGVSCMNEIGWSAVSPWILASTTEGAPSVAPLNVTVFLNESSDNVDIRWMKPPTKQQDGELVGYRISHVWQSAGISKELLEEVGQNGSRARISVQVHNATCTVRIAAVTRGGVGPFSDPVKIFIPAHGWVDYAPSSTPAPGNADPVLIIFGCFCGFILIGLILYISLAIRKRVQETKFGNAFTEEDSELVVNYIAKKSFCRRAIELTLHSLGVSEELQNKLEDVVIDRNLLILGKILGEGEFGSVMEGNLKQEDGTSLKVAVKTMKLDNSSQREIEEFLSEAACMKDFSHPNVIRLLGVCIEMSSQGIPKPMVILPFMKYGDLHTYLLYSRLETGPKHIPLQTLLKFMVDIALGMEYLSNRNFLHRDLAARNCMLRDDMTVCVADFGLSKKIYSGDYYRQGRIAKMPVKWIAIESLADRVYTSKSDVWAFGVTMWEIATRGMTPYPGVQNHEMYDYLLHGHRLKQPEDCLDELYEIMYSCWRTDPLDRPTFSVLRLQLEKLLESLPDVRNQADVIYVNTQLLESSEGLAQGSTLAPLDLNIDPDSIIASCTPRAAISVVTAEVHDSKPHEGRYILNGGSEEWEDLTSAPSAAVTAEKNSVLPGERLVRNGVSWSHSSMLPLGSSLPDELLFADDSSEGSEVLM
Method: 293A cells (Thermo Fisher #R70507) were seeded at 1.5×10^6 cells/well onto 100 mm dish (Greiner #664169), in DMEM (Thermo Fisher #11995-040) containing 10% FBS (Thermo Fisher #26140-079), 1% MEM NEAA (Thermo Fisher #11140-050), 1% GlutaMax (Thermo Fisher #35050-061), and 1% Penicillin Streptomycin (Thermo Fisher #15140-122). 293A cells were incubated at 37° C., 5% CO2 for 24 h and then transfected with […] MERTK DNA (Genecopoeia #EX-Z8208-M02) using TransIT LT1 transfection reagent (Mirus-Bio #MIR2305). After 24 h incubation, the transfected 293A cells were seeded at 1×10^5 cells/well onto 96-well plates (Corning #3904) in DMEM growth medium overnight. Test compounds were serially diluted to produce an 8-point dose curve in fresh serum-free medium to a final concentration of 0.3% DMSO (vehicle) and added to the cells and incubated for 1 h. Cells were then immediately lysed with 150 μL of cold 1× lysis buffer [20 mM Tris, 137 mM sodium chloride, 2 mM EDTA, 10% glycerol, 1% NP-40 alternative, 1 mM activated sodium orthovanadate, 1 mM PefaBloc SC (Sigma-Aldrich #11429868001), protease/phosphatase inhibitor tablet (Thermo Fisher #A32959)]. Lysates were clarified by centrifugation and 50 µL/well added in to the human phospho-Mer DuoSet IC ELISA (R&D Systems #DYC2579-2). Assay was performed according to manufacturer's instructions and sample phospho-Mer concentrations were extrapolated using human phospho-Mer control (R&D Systems #841793) as a standard. Positive control wells (100% activity) contained DMSO-treated cell lysates. Negative control wells (0% activity) contained reference inhibitor-treated cell lysates. IC50 values were calculated by nonlinear regression analysis using a 4-parameter logistic curve fit in ActivityBase XE (JDBS).

[4] = Met autophosphorylation ELISA in PC-3 cells
[5] = KDR autophosphorylation ELISA in HUVEC cells
[6] = Mer autophosphorylation ELISA in transient transfected 293A cells

Sequence of Met (phospho-Met, HGF-stimulated PC-3 prostate cancer cells) (P08581 25-1390): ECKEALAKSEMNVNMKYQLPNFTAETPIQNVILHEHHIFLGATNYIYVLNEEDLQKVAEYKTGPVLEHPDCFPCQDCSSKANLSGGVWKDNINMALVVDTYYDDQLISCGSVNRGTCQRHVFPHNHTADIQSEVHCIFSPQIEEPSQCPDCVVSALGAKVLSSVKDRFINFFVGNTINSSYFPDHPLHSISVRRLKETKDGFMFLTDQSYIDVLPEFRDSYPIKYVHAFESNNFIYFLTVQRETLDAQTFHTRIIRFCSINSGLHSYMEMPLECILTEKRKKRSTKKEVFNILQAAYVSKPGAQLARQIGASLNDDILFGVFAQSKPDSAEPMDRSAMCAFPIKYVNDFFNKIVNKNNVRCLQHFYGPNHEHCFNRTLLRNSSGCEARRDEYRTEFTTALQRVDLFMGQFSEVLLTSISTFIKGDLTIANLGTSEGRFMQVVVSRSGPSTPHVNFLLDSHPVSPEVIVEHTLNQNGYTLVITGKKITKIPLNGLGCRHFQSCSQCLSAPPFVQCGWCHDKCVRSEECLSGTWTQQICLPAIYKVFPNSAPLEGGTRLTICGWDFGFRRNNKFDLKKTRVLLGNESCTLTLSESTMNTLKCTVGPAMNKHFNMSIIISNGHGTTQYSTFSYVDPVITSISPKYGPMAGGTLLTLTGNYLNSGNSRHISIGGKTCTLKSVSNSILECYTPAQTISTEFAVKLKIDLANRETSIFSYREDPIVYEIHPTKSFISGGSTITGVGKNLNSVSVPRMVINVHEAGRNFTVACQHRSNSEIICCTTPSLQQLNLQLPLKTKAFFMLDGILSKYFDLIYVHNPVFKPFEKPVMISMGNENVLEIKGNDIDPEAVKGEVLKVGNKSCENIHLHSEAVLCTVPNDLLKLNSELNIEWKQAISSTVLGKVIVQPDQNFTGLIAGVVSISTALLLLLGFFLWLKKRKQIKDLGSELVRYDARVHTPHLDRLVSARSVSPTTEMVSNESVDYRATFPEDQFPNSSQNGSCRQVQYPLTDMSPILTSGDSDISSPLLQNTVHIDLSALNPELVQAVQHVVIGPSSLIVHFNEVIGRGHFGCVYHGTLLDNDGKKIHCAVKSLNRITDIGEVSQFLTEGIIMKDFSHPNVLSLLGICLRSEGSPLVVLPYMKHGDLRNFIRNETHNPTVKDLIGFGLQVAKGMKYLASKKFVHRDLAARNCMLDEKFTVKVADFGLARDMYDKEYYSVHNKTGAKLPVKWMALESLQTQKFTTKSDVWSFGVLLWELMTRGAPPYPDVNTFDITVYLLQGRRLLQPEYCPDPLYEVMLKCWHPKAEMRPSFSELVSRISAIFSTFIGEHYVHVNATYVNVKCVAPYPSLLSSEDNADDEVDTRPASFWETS

IC50 [1, 4] [nM] | IC50 [2, 5] [nM] | IC50 [3, 6] [nM] | IC50 ([1]; PC-3 cells) [nM] | IC50 ([2]; HUVEC cells) [nM] | IC50 ([3]; transfected 293A cells) [nM] | SMILES
< 100 | > 300 | < 100 | – | – | – | COc1cc2nccc(Oc3ccc(NC(=O)c4nn(CC(F)F)c(C)c(-c5ccc(F)cc5)c4=O)cc3)c2nc1OC [Compound 776, 1-(2,2-difluoroethyl)-N-[4-[(6,7-dimethoxy-1,5-naphthyridin-4-yl)oxy]phenyl]-5-(4-fluorophenyl)-6-methyl-4-oxopyridazine-3-carboxamide]
– | – | – | < 100 | > 300 | < 100 | COc1cc2nccc(Oc3ccc(NC(=O)c4c(C)n(C)c(C)c(-c5ccc(F)cc5F)c4=O)cc3F)c2nc1OC [Compound 823, 5-(2,4-difluorophenyl)-N-[4-[(6,7-dimethoxy-1,5-naphthyridin-4-yl)oxy]-3-fluorophenyl]-1,2,6-trimethyl-4-oxopyridine-3-carboxamide]
< 100 | < 100 | < 100 | – | – | – | COc1cnc2c(Oc3ccc(NC(=O)c4cnc(C)c(-c5ccc(F)c(F)c5)c4O)cc3F)ccnc2c1 [Compound 706, 5-(3,4-difluorophenyl)-N-[3-fluoro-4-[(7-methoxy-1,5-naphthyridin-4-yl)oxy]phenyl]-4-hydroxy-6-methylpyridine-3-carboxamide]
< 100 | > 300 | < 100 | – | – | – | CCOc1ccn(-c2ccc(F)cc2)c(=O)c1C(=O)Nc1ccc(Oc2ccnc3cc(OC)cnc23)c(F)c1 [Compound 716, 4-ethoxy-N-[3-fluoro-4-[(7-methoxy-1,5-naphthyridin-4-yl)oxy]phenyl]-1-(4-fluorophenyl)-2-oxopyridine-3-carboxamide]
< 100 | 100 to 300 | < 100 | – | – | – | COc1cc2nccc(Oc3ccc(NC(=O)c4c(C)n(CC(F)(F)F)cc(-c5ccc(F)cc5)c4=O)cc3F)c2nc1OC [Compound 727, N-[4-[(6,7-dimethoxy-1,5-naphthyridin-4-yl)oxy]-3-fluorophenyl]-5-(4-fluorophenyl)-2-methyl-4-oxo-1-(2,2,2-trifluoroethyl)pyridine-3-carboxamide]
< 100 | < 100 | < 100 | – | – | – | COc1cc2nccc(Oc3ccc(NC(=O)c4c(C)n(CCF)cc(-c5ccc(F)cc5C)c4=O)cc3F)c2nc1OC [Compound 756, N-[4-[(6,7-dimethoxy-1,5-naphthyridin-4-yl)oxy]-3-fluorophenyl]-1-(2-fluoroethyl)-5-(4-fluoro-2-methylphenyl)-2-methyl-4-oxopyridine-3-carboxamide]
< 100 | > 300 | < 100 | – | – | – | COc1cnc2c(Oc3ccc(NC(=O)c4c(C)n(CC(F)(F)F)cc(-c5ccc(F)cc5)c4=O)cc3F)ccnc2c1 [Compound 790, N-[3-fluoro-4-[(7-methoxy-1,5-naphthyridin-4-yl)oxy]phenyl]-5-(4-fluorophenyl)-2-methyl-4-oxo-1-(2,2,2-trifluoroethyl)pyridine-3-carboxamide]
< 100 | < 100 | < 100 | – | – | – | COc1cnc2c(Oc3cc(F)c(NC(=O)c4c(C)nc(C)c(-c5ccc(F)cc5F)c4O)cc3F)ccnc2c1 [Compound 779, N-[2,5-difluoro-4-[(7-methoxy-1,5-naphthyridin-4-yl)oxy]phenyl]-5-(2,4-difluorophenyl)-4-hydroxy-2,6-dimethylpyridine-3-carboxamide]
< 100 | < 100 | < 100 | – | – | – | COc1ccc(-c2c(C)nc(C)c(C(=O)Nc3ccc(Oc4ccnc5cc(OC)c(OC)nc45)c(F)c3)c2O)cc1C [Compound 712, N-[4-[(6,7-dimethoxy-1,5-naphthyridin-4-yl)oxy]-3-fluorophenyl]-4-hydroxy-5-(4-methoxy-3-methylphenyl)-2,6-dimethylpyridine-3-carboxamide]
< 100 | < 100 | < 100 | – | – | – | COc1cc2nccc(Oc3ccc(NC(=O)c4c(C)nc(C)c(-c5ccc(F)c(C)c5)c4O)cc3F)c2nc1OC [Compound 710, N-[4-[(6,7-dimethoxy-1,5-naphthyridin-4-yl)oxy]-3-fluorophenyl]-5-(4-fluoro-3-methylphenyl)-4-hydroxy-2,6-dimethylpyridine-3-carboxamide]
– | – | – | < 100 | > 300 | < 100 | COc1cnc2c(Oc3ccc(NC(=O)c4c(C)n(C)c(C)c(-c5ccc(F)cc5OC)c4=O)cc3F)ccnc2c1 [Compound 818, N-[3-fluoro-4-[(7-methoxy-1,5-naphthyridin-4-yl)oxy]phenyl]-5-(4-fluoro-2-methoxyphenyl)-1,2,6-trimethyl-4-oxopyridine-3-carboxamide]
< 100 | < 100 | < 100 | – | – | – | COc1cc2nccc(Oc3cc(F)c(NC(=O)c4c(C)nc(C)c(-c5ccc(F)cc5F)c4O)cc3F)c2nc1OC [Compound 777, 5-(2,4-difluorophenyl)-N-[4-[(6,7-dimethoxy-1,5-naphthyridin-4-yl)oxy]-2,5-difluorophenyl]-4-hydroxy-2,6-dimethylpyridine-3-carboxamide]
< 100 | < 100 | < 100 | – | – | – | COc1cc2nccc(Oc3ccc(NC(=O)c4c(C)nc(C)c(-c5ccc(F)c(F)c5)c4O)cc3F)c2nc1OC [Compound 708, 5-(3,4-difluorophenyl)-N-[4-[(6,7-dimethoxy-1,5-naphthyridin-4-yl)oxy]-3-fluorophenyl]-4-hydroxy-2,6-dimethylpyridine-3-carboxamide]
< 100 | > 300 | < 100 | – | – | – | CCOc1ccn(-c2ccc(F)cc2)c(=O)c1C(=O)Nc1ccc(Oc2ccnc3nc(OC)c(OCCOC)cc23)c(F)c1 [Compound 761, 4-ethoxy-N-[3-fluoro-4-[[7-methoxy-6-(2-methoxyethoxy)-1,8-naphthyridin-4-yl]oxy]phenyl]-1-(4-fluorophenyl)-2-oxopyridine-3-carboxamide]
< 100 | < 100 | < 100 | – | – | – | COc1cc2nccc(Oc3ccc(NC(=O)c4c(C)nc(C)c(-c5ccc(C(C)C)cc5)c4O)cc3F)c2nc1OC [Compound 711, N-[4-[(6,7-dimethoxy-1,5-naphthyridin-4-yl)oxy]-3-fluorophenyl]-4-hydroxy-2,6-dimethyl-5-(4-propan-2-ylphenyl)pyridine-3-carboxamide]
